Assay results published in patent publication US8642011B2 (priority 2006, dated 2014).
In brackets after ≈: the same amount, converted by molar mass.

Experiments:
Experiment in all cases: microbe, parasite or virus in culture
Conditions in all cases: Mycobacterium tuberculosis, read-out: minimum inhibitory concentration (MIC)
[1] = system: M. tuberculosis strains H37Rv; type: cell-based
[2] = system: MT103 (wild type); type: cell-based, M. tuberculosis
[3] = system: SO2 strain; type: cell-based, M. tuberculosis

`CC[C@@H](CO)NCCN[C@@H](CC)CO` [Ethambutol] gave an MIC [1] of 2 µg/mL (≈ 9.79 µM), an MIC [2] of 2 µg/mL (≈ 9.79 µM) and an MIC [3] of 2 µg/mL (≈ 9.79 µM).
Compound `NNC(=O)c1ccncc1` [Isoniazid] has an MIC [1] of 0.5 µg/mL (≈ 3.65 µM), an MIC [2] of 0.5 µg/mL (≈ 3.65 µM) and an MIC [3] of 0.25 µg/mL (≈ 1.82 µM).
`CO[C@H]1/C=C/O[C@@]2(C)Oc3c(C)c(O)c4c(O)c(c(/C=N/N5CCN(C)CC5)c(O)c4c3C2=O)NC(=O)/C(C)=C\C=C\[C@H](C)[C@H](O)[C@@H](C)[C@@H](O)[C@@H](C)[C@H](OC(C)=O)[C@@H]1C` [Rifampicin] gave an MIC [1] of under 0.004 µg/mL, an MIC [2] of under 0.004 µg/mL and an MIC [3] of under 0.004 µg/mL.
In the case of `[H]/N=C(/N)N[C@H]1[C@H](O)[C@@H](O)[C@H](O[C@@H]2O[C@@H](C)[C@](O)(C=O)[C@H]2O[C@@H]2O[C@@H](CO)[C@H](O)[C@@H](O)[C@@H]2NC)[C@@H](N/C(N)=N\[H])[C@@H]1O` [Streptomycin], the MIC [1] is reported as under 0.5 µg/mL, the MIC [2] is reported as under 0.5 µg/mL and the MIC [3] is reported as under 0.5 µg/mL.
